Measurements published in patent US20230085307A1, “PYRIDAZINONE COMPOUND AND HERBICIDE” (NISSAN CHEMICAL CORPORATION, priority 2019, published 2023).

Tested on: Chinese sprangletop
Experiment: Test Example 3: herbicidal effect by foliage application, Wagner pot (Table 18, symbol D)
Type: in vivo, chinese sprangletop (Leptochloa chinensis)
Conditions: 320 g/ha
Procedure, shortened: (§1)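 Plants were sown in alluvial soil held under 0.1–0.5 cm standing water and grown 14 days in a greenhouse at 25–30 °C. An emulsifiable formulation, water-diluted to the set dose, was then sprayed onto the foliage, and effects were scored three weeks later using previously defined criteria.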

SMILES	herbicidal effect on D (Chinese sprangletop), rating 0-5
CON=C(C)COc1ccc(-c2sc3ccc(F)cc3c2-c2c(O)c(C)nn(C)c2=O)cc1 [2-069]	4 (Herbicidal rate of 70% or more and less than 90%)

Tested on: chickweed
Experiment: Test Example 5: herbicidal effect by foliage application, plastic box (Table 20, symbol P)
Type: in vivo, common chickweed (Stellaria media)
Conditions: foliage application, 320 g/ha, evaluated three weeks after application
Procedure, shortened: (§2)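 Foliar spray test: emulsion formulation diluted in water to a set application rate, sprayed onto 14-day-old plants raised in diluvial soil at 25° C to 30° C under glass. Both herbicidal effect and crop effect rated visually three weeks later.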

SMILES	herbicidal effect on P: chickweed
CON=C(C)COc1ccc(-c2sc3ccc(F)cc3c2-c2c(O)c(C)nn(C)c2=O)cc1 [2-069]	5 (Herbicidal rate of 90% or more (almost completely withered))

Tested on: green foxtail
Experiment: Test Example 5: herbicidal effect by foliage application, plastic box (Table 20, symbol G)
Type: in vivo, green foxtail (Setaria viridis)
Conditions: foliage application, 320 g/ha, evaluated three weeks after application
Procedure, shortened: as §2

SMILES	herbicidal effect on G: green foxtail
CON=C(C)COc1ccc(-c2sc3ccc(F)cc3c2-c2c(O)c(C)nn(C)c2=O)cc1 [2-069]	5 (Herbicidal rate of 90% or more (almost completely withered))

Tested on: windgrass
Experiment: Test Example 5: herbicidal effect by foliage application, plastic box (Table 20, symbol L)
Type: in vivo, windgrass (Apera spica-venti)
Conditions: foliage application, 320 g/ha, evaluated three weeks after application
Procedure, shortened: as §2

SMILES	herbicidal effect on L: windgrass
CON=C(C)COc1ccc(-c2sc3ccc(F)cc3c2-c2c(O)c(C)nn(C)c2=O)cc1 [2-069]	5 (Herbicidal rate of 90% or more (almost completely withered))

Tested on: chickweed
Experiment: Test Example 4: herbicidal effect by soil treatment (Table 19, symbol P)
Type: in vivo, common chickweed (Stellaria media)
Conditions: 320 g/ha
Procedure, shortened: (§3)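 Step 1: sow seeds in sterilized diluvial soil, cover ~1.5 cm. Step 2: spray diluted emulsion onto soil surface at predetermined rate. Step 3: greenhouse, 25–30° C, three weeks. Step 4: grade effect on each plant by earlier criteria.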

SMILES	herbicidal effect rating, P: chickweed
CON=C(C)COc1ccc(-c2sc3ccc(F)cc3c2-c2c(O)c(C)nn(C)c2=O)cc1 [2-069]	4 (Herbicidal rate of 70% or more and less than 90%)

Tested on: green foxtail
Experiment: Test Example 4: herbicidal effect by soil treatment (Table 19, symbol G)
Type: in vivo, green foxtail (Setaria viridis)
Conditions: 320 g/ha
Procedure, shortened: as §3

SMILES	herbicidal effect rating, G: green foxtail
CON=C(C)COc1ccc(-c2sc3ccc(F)cc3c2-c2c(O)c(C)nn(C)c2=O)cc1 [2-069]	5 (Herbicidal rate of 90% or more (almost completely withered))

Tested on: southern crabgrass
Experiment: Test Example 4: herbicidal effect by soil treatment (Table 19, symbol F)
Type: in vivo, southern crabgrass (Digitaria ciliaris)
Conditions: 320 g/ha
Procedure, shortened: as §3

SMILES	herbicidal effect rating, F: southern crabgrass
CON=C(C)COc1ccc(-c2sc3ccc(F)cc3c2-c2c(O)c(C)nn(C)c2=O)cc1 [2-069]	5 (Herbicidal rate of 90% or more (almost completely withered))

Tested on: velvetleaf
Experiment: Test Example 5: herbicidal effect by foliage application, plastic box (Table 20, symbol M)
Type: in vivo, velvetleaf (Abutilon theophrasti)
Conditions: foliage application, 320 g/ha, evaluated three weeks after application
Procedure, shortened: as §2

SMILES	herbicidal effect on M: velvetleaf
CON=C(C)COc1ccc(-c2sc3ccc(F)cc3c2-c2c(O)c(C)nn(C)c2=O)cc1 [2-069]	5 (Herbicidal rate of 90% or more (almost completely withered))

Tested on: wild oat
Experiment: Test Example 4: herbicidal effect by soil treatment (Table 19, symbol I)
Type: in vivo, wild oat (Avena fatua)
Conditions: 320 g/ha
Procedure, shortened: as §3

SMILES	herbicidal effect rating, I: wild oat
CON=C(C)COc1ccc(-c2sc3ccc(F)cc3c2-c2c(O)c(C)nn(C)c2=O)cc1 [2-069]	0 (Herbicidal rate of 5% or less (almost no effect))

Tested on: lambsquarters
Experiment: Test Example 4: herbicidal effect by soil treatment (Table 19, symbol O)
Type: in vivo, lambsquarters (Chenopodium album)
Conditions: 320 g/ha
Procedure, shortened: as §3

SMILES	herbicidal effect rating, O: lambsquarters
CON=C(C)COc1ccc(-c2sc3ccc(F)cc3c2-c2c(O)c(C)nn(C)c2=O)cc1 [2-069]	5 (Herbicidal rate of 90% or more (almost completely withered))

Tested on: redroot pigweed
Experiment: Test Example 4: herbicidal effect by soil treatment (Table 19, symbol N)
Type: in vivo, redroot pigweed (Amaranthus retroflexus)
Conditions: 320 g/ha
Procedure, shortened: as §3

SMILES	herbicidal effect rating, N: redroot pigweed
CON=C(C)COc1ccc(-c2sc3ccc(F)cc3c2-c2c(O)c(C)nn(C)c2=O)cc1 [2-069]	5 (Herbicidal rate of 90% or more (almost completely withered))

Tested on: Italian ryegrass
Experiment: Test Example 5: herbicidal effect by foliage application, plastic box (Table 20, symbol K)
Type: in vivo, Italian ryegrass (Lolium multiflorum)
Conditions: foliage application, 320 g/ha, evaluated three weeks after application
Procedure, shortened: as §2

SMILES	herbicidal effect on K: Italian ryegrass
CON=C(C)COc1ccc(-c2sc3ccc(F)cc3c2-c2c(O)c(C)nn(C)c2=O)cc1 [2-069]	5 (Herbicidal rate of 90% or more (almost completely withered))

Tested on: persian speedwell
Experiment: Test Example 5: herbicidal effect by foliage application, plastic box (Table 20, symbol R)
Type: in vivo, Persian speedwell (Veronica persica)
Conditions: foliage application, 320 g/ha, evaluated three weeks after application
Procedure, shortened: as §2

SMILES	herbicidal effect on R: persian speedwell
CON=C(C)COc1ccc(-c2sc3ccc(F)cc3c2-c2c(O)c(C)nn(C)c2=O)cc1 [2-069]	5 (Herbicidal rate of 90% or more (almost completely withered))

Tested on: windgrass
Experiment: Test Example 4: herbicidal effect by soil treatment (Table 19, symbol L)
Type: in vivo, windgrass (Apera spica-venti)
Conditions: 320 g/ha
Procedure, shortened: as §3

SMILES	herbicidal effect rating, L: windgrass
CON=C(C)COc1ccc(-c2sc3ccc(F)cc3c2-c2c(O)c(C)nn(C)c2=O)cc1 [2-069]	0 (Herbicidal rate of 5% or less (almost no effect))

Tested on: barnyard grass
Experiment: Test Example 3: herbicidal effect by foliage application, Wagner pot (Table 18, symbol H)
Type: in vivo, barnyard grass (Echinochloa crus-galli)
Conditions: 320 g/ha
Procedure, shortened: as §1

SMILES	herbicidal effect on H (barnyard grass), rating 0-5
CON=C(C)COc1ccc(-c2sc3ccc(F)cc3c2-c2c(O)c(C)nn(C)c2=O)cc1 [2-069]	5 (Herbicidal rate of 90% or more (almost completely withered))

Tested on: blackgrass
Experiment: Test Example 5: herbicidal effect by foliage application, plastic box (Table 20, symbol J)
Type: in vivo, blackgrass (Alopecurus myosuroides)
Conditions: foliage application, 320 g/ha, evaluated three weeks after application
Procedure, shortened: as §2

SMILES	herbicidal effect on J: blackgrass
CON=C(C)COc1ccc(-c2sc3ccc(F)cc3c2-c2c(O)c(C)nn(C)c2=O)cc1 [2-069]	5 (Herbicidal rate of 90% or more (almost completely withered))

Tested on: southern crabgrass
Experiment: Test Example 5: herbicidal effect by foliage application, plastic box (Table 20, symbol F)
Type: in vivo, southern crabgrass (Digitaria ciliaris)
Conditions: foliage application, 320 g/ha, evaluated three weeks after application
Procedure, shortened: as §2

SMILES	herbicidal effect on F: southern crabgrass
CON=C(C)COc1ccc(-c2sc3ccc(F)cc3c2-c2c(O)c(C)nn(C)c2=O)cc1 [2-069]	5 (Herbicidal rate of 90% or more (almost completely withered))

Tested on: blackgrass
Experiment: Test Example 4: herbicidal effect by soil treatment (Table 19, symbol J)
Type: in vivo, blackgrass (Alopecurus myosuroides)
Conditions: 320 g/ha
Procedure, shortened: as §3

SMILES	herbicidal effect rating, J: blackgrass
CON=C(C)COc1ccc(-c2sc3ccc(F)cc3c2-c2c(O)c(C)nn(C)c2=O)cc1 [2-069]	0 (Herbicidal rate of 5% or less (almost no effect))

Tested on: persian speedwell
Experiment: Test Example 4: herbicidal effect by soil treatment (Table 19, symbol R)
Type: in vivo, Persian speedwell (Veronica persica)
Conditions: 320 g/ha
Procedure, shortened: as §3

SMILES	herbicidal effect rating, R: persian speedwell
CON=C(C)COc1ccc(-c2sc3ccc(F)cc3c2-c2c(O)c(C)nn(C)c2=O)cc1 [2-069]	5 (Herbicidal rate of 90% or more (almost completely withered))

Tested on: rice flat sedge
Experiment: Test Example 3: herbicidal effect by foliage application, Wagner pot (Table 18, symbol E)
Type: in vivo, rice flat sedge (Cyperus iria)
Conditions: 320 g/ha
Procedure, shortened: as §1

SMILES	herbicidal effect on E (rice flat sedge), rating 0-5
CON=C(C)COc1ccc(-c2sc3ccc(F)cc3c2-c2c(O)c(C)nn(C)c2=O)cc1 [2-069]	5 (Herbicidal rate of 90% or more (almost completely withered))

Tested on: wild oat
Experiment: Test Example 5: herbicidal effect by foliage application, plastic box (Table 20, symbol I)
Type: in vivo, wild oat (Avena fatua)
Conditions: foliage application, 320 g/ha, evaluated three weeks after application
Procedure, shortened: as §2

SMILES	herbicidal effect on I: wild oat
CON=C(C)COc1ccc(-c2sc3ccc(F)cc3c2-c2c(O)c(C)nn(C)c2=O)cc1 [2-069]	2 (Herbicidal rate of 20% or more and less than 40%)

Tested on: Italian ryegrass
Experiment: Test Example 4: herbicidal effect by soil treatment (Table 19, symbol K)
Type: in vivo, Italian ryegrass (Lolium multiflorum)
Conditions: 320 g/ha
Procedure, shortened: as §3

SMILES	herbicidal effect rating, K: Italian ryegrass
CON=C(C)COc1ccc(-c2sc3ccc(F)cc3c2-c2c(O)c(C)nn(C)c2=O)cc1 [2-069]	5 (Herbicidal rate of 90% or more (almost completely withered))

Tested on: velvetleaf
Experiment: Test Example 4: herbicidal effect by soil treatment (Table 19, symbol M)
Type: in vivo, velvetleaf (Abutilon theophrasti)
Conditions: 320 g/ha
Procedure, shortened: as §3

SMILES	herbicidal effect rating, M: velvetleaf
CON=C(C)COc1ccc(-c2sc3ccc(F)cc3c2-c2c(O)c(C)nn(C)c2=O)cc1 [2-069]	3 (Herbicidal rate of 40% or more and less than 70%)

Tested on: barnyard grass
Experiment: Test Example 4: herbicidal effect by soil treatment (Table 19, symbol H)
Type: in vivo, barnyard grass (Echinochloa crus-galli)
Conditions: 320 g/ha
Procedure, shortened: as §3

SMILES	herbicidal effect rating, H: barnyard grass
CON=C(C)COc1ccc(-c2sc3ccc(F)cc3c2-c2c(O)c(C)nn(C)c2=O)cc1 [2-069]	5 (Herbicidal rate of 90% or more (almost completely withered))

Tested on: lambsquarters
Experiment: Test Example 5: herbicidal effect by foliage application, plastic box (Table 20, symbol O)
Type: in vivo, lambsquarters (Chenopodium album)
Conditions: foliage application, 320 g/ha, evaluated three weeks after application
Procedure, shortened: as §2

SMILES	herbicidal effect on O: lambsquarters
CON=C(C)COc1ccc(-c2sc3ccc(F)cc3c2-c2c(O)c(C)nn(C)c2=O)cc1 [2-069]	5 (Herbicidal rate of 90% or more (almost completely withered))

Tested on: redroot pigweed
Experiment: Test Example 5: herbicidal effect by foliage application, plastic box (Table 20, symbol N)
Type: in vivo, redroot pigweed (Amaranthus retroflexus)
Conditions: foliage application, 320 g/ha, evaluated three weeks after application
Procedure, shortened: as §2

SMILES	herbicidal effect on N: redroot pigweed
CON=C(C)COc1ccc(-c2sc3ccc(F)cc3c2-c2c(O)c(C)nn(C)c2=O)cc1 [2-069]	5 (Herbicidal rate of 90% or more (almost completely withered))

Tested on: barnyard grass
Experiment: Test Example 5: herbicidal effect by foliage application, plastic box (Table 20, symbol H)
Type: in vivo, barnyard grass (Echinochloa crus-galli)
Conditions: foliage application, 320 g/ha, evaluated three weeks after application
Procedure, shortened: as §2

SMILES	herbicidal effect on H: barnyard grass
CON=C(C)COc1ccc(-c2sc3ccc(F)cc3c2-c2c(O)c(C)nn(C)c2=O)cc1 [2-069]	5 (Herbicidal rate of 90% or more (almost completely withered))
